Reference: ChEMBL document CHEMBL1268894, “Synthesis and biological evaluation of novel hygromycin A antibacterial agents” (Bioorg Med Chem Lett, 2010)
≈ marks a conversion by molar mass, not a printed value.

Legend:
[1] = Permeability across basolateral to apical side in human Caco-2 cells; format: ADME, cell-based; conditions: read-out: permeability
Streptococcus pneumoniae [2] = test: Antimicrobial activity against Streptococcus pneumoniae 1046; format: functional
Streptococcus pyogenes [3] = test: Antimicrobial activity against Streptococcus pyogenes 1079; format: functional
Staphylococcus aureus [4] = test: Antimicrobial activity against Staphylococcus aureus 1146; format: functional
Staphylococcus aureus [5] = test: Antimicrobial activity against Staphylococcus aureus 1095; format: functional
Streptococcus pyogenes [6] = test: Antimicrobial activity against Streptococcus pyogenes 2035; format: functional
[7] = Permeability across apical to basolateral side in human Caco-2 cells; format: ADME, cell-based; conditions: read-out: permeability
Streptococcus pneumoniae [8] = test: Antimicrobial activity against Streptococcus pneumoniae 1095; format: functional
[9] = Oral bioavailability in rat; format: ADME, organism-based; conditions: in vivo

| Structure (SMILES) | Papp B→A [1] [×10⁻⁶ cm/s] | MIC (Streptococcus pneumoniae [2]) [µg/mL] | MIC (Streptococcus pyogenes [3]) [µg/mL] | MIC (Staphylococcus aureus [4]) [µg/mL] | MIC (Staphylococcus aureus [5]) [µg/mL] | MIC (Streptococcus pyogenes [6]) [µg/mL] | Papp A→B [7] [×10⁻⁶ cm/s] | MIC (Streptococcus pneumoniae [8]) [µg/mL] | bioavailability [9] [%] |
| --- | --- | --- | --- | --- | --- | --- | --- | --- | --- |
| C/C(=C\c1cc(F)c(OCCCF)cc1F)C(=O)N[C@@H]1[C@H](O)[C@@H](O)[C@H]2OCO[C@H]2[C@@H]1OCc1ccccc1C#N | 22 | < 0.0625 | < 0.0625 | 1 (≈ 1.78 µM) | 1 (≈ 1.78 µM) | 0.25 (≈ 0.444 µM) | 2.5 | < 0.0625 |  |
| CCO[C@@H]1[C@@H](O)[C@H]2OCO[C@H]2[C@H](O)[C@@H]1NC(=O)/C(C)=C/c1cc(F)c(OCCCF)cc1F |  | 2 (≈ 4.21 µM) | 2 (≈ 4.21 µM) | 8 (≈ 16.8 µM) | 8 (≈ 16.8 µM) | 1 (≈ 2.1 µM) |  | 8 (≈ 16.8 µM) |  |
| CCCO[C@@H]1[C@H](NC(=O)/C(C)=C/c2cc(F)c(OCCCF)cc2F)[C@H](O)[C@@H](O)[C@H]2OCO[C@H]21 |  | 1 (≈ 2.04 µM) | 1 (≈ 2.04 µM) | 8 (≈ 16.3 µM) | 4 (≈ 8.17 µM) | 4 (≈ 8.17 µM) |  | 2 (≈ 4.09 µM) |  |
| CCCO[C@@H]1[C@@H](O)[C@H]2OCO[C@H]2[C@H](O)[C@@H]1NC(=O)/C(C)=C/c1cc(F)c(OCCCF)cc1F |  | 64 (≈ 131 µM) | 32 (≈ 65.4 µM) | > 64 | > 64 | 64 (≈ 131 µM) |  | 64 (≈ 131 µM) |  |
| C/C(=C\c1cc(F)c(OCCCF)cc1F)C(=O)N[C@@H]1[C@H](O)[C@@H](O)[C@H]2OCO[C@H]2[C@@H]1OCCCF |  | 0.25 (≈ 0.493 µM) | 0.125 (≈ 0.246 µM) | 1 (≈ 1.97 µM) | 2 (≈ 3.94 µM) | 0.5 (≈ 0.985 µM) |  | 0.25 (≈ 0.493 µM) |  |
| C/C(=C\c1cc(F)c(OCCCF)cc1F)C(=O)N[C@H]1[C@@H](O)[C@@H]2OCO[C@@H]2[C@H](O)[C@H]1OCCCF |  | 8 (≈ 15.8 µM) | 2 (≈ 3.94 µM) | 8 (≈ 15.8 µM) | 16 (≈ 31.5 µM) | 8 (≈ 15.8 µM) |  | 8 (≈ 15.8 µM) |  |
| C/C(=C\c1cc(F)c(OCCCF)cc1F)C(=O)N[C@@H]1[C@H](O)[C@@H](O)[C@H]2OCO[C@H]2[C@@H]1OCC1CC1 |  | 0.5 (≈ 0.997 µM) | 0.5 (≈ 0.997 µM) | 4 (≈ 7.98 µM) | 4 (≈ 7.98 µM) | 1 (≈ 1.99 µM) |  | 1 (≈ 1.99 µM) |  |
| C/C(=C\c1cc(F)c(OCCCF)cc1F)C(=O)N[C@H]1[C@@H](O)[C@@H]2OCO[C@@H]2[C@H](O)[C@H]1OCC1CC1 |  | 64 (≈ 128 µM) | 32 (≈ 63.8 µM) | > 64 | > 64 | > 64 |  | > 64 |  |
| C/C(=C\c1cc(F)c(OCCCF)cc1F)C(=O)N[C@@H]1[C@H](O)[C@@H](O)[C@H]2OCO[C@H]2[C@@H]1OCc1ccccc1 |  | 4 (≈ 7.44 µM) | 2 (≈ 3.72 µM) | 16 (≈ 29.8 µM) | 16 (≈ 29.8 µM) | 16 (≈ 29.8 µM) |  | 8 (≈ 14.9 µM) |  |
| C/C(=C\c1cc(F)c(OCCCF)cc1F)C(=O)N[C@H]1[C@@H](O)[C@@H]2OCO[C@@H]2[C@H](O)[C@H]1OCc1ccccc1 | 14 | 32 (≈ 59.5 µM) | 32 (≈ 59.5 µM) | 64 (≈ 119 µM) | > 64 | 64 (≈ 119 µM) | 10 | 32 (≈ 59.5 µM) |  |
| C/C(=C\c1cc(F)c(OCCCF)cc1F)C(=O)N[C@@H]1[C@H](O)[C@@H](O)[C@H]2OCO[C@H]2[C@@H]1OCC1CCOC1 (stereo partly drawn) |  | 0.5 (≈ 0.941 µM) | 0.25 (≈ 0.47 µM) | 2 (≈ 3.76 µM) | 4 (≈ 7.53 µM) | 1 (≈ 1.88 µM) |  | 1 (≈ 1.88 µM) |  |
| COCCCO[C@@H]1[C@H](NC(=O)/C(C)=C/c2cc(F)c(OCCCF)cc2F)[C@H](O)[C@@H](O)[C@H]2OCO[C@H]21 |  | 4 (≈ 7.7 µM) | 2 (≈ 3.85 µM) | 16 (≈ 30.8 µM) | 16 (≈ 30.8 µM) | 2 (≈ 3.85 µM) |  | 4 (≈ 7.7 µM) | 90 |
| C/C(=C\c1cc(F)c(OCCCF)cc1F)C(=O)N[C@@H]1[C@H](O)[C@@H](O)[C@H]2OCO[C@H]2[C@@H]1OCC#N |  | 0.5 (≈ 1.03 µM) | 0.25 (≈ 0.514 µM) | 1 (≈ 2.06 µM) | 2 (≈ 4.11 µM) | 0.5 (≈ 1.03 µM) |  | 1 (≈ 2.06 µM) |  |
| C/C(=C\c1cc(F)c(OCCCF)cc1F)C(=O)N[C@@H]1[C@H](O)[C@@H](O)[C@H]2OCO[C@H]2[C@@H]1O | 5.9 | 0.5 (≈ 1.12 µM) | < 0.2 | 4 (≈ 8.94 µM) | 4 (≈ 8.94 µM) | 2 (≈ 4.47 µM) | 0.9 | 0.4 (≈ 0.894 µM) | 20 |
| CO[C@@H]1[C@@H](O)[C@@H](NC(=O)/C(C)=C/c2cc(F)c(OCCCF)cc2F)[C@@H](O)[C@@H]2OCO[C@H]12 |  | 25 (≈ 54.2 µM) | 50 (≈ 108 µM) | 100 (≈ 217 µM) | > 100 | 100 (≈ 217 µM) |  | 25 (≈ 54.2 µM) |  |
| C/C(=C\c1cc(F)c(OCCCF)cc1F)C(=O)N[C@H]1[C@@H](O)[C@@H]2OCO[C@@H]2C[C@H]1O |  | 4 (≈ 9.27 µM) | 8 (≈ 18.5 µM) | 32 (≈ 74.2 µM) | 64 (≈ 148 µM) | 16 (≈ 37.1 µM) |  | 8 (≈ 18.5 µM) |  |
| CO[C@@H]1[C@H](NC(=O)/C(C)=C/c2cc(F)c(OCCCF)cc2F)[C@H](O)[C@@H](O)[C@H]2OCO[C@H]21 |  | 0.78 (≈ 1.69 µM) | 1.56 (≈ 3.38 µM) | 3.13 (≈ 6.78 µM) | 6.25 (≈ 13.5 µM) | 1.56 (≈ 3.38 µM) |  | 1.56 (≈ 3.38 µM) |  |
| CCO[C@@H]1[C@H](NC(=O)/C(C)=C/c2cc(F)c(OCCCF)cc2F)[C@H](O)[C@@H](O)[C@H]2OCO[C@H]21 |  | 1 (≈ 2.1 µM) | 1 (≈ 2.1 µM) | 8 (≈ 16.8 µM) | 8 (≈ 16.8 µM) | 4 (≈ 8.41 µM) |  | 4 (≈ 8.41 µM) |  |
| C/C(=C\c1cc(F)c(OCCCF)cc1F)C(=O)N[C@H]1C[C@@H]2OCO[C@@H]2[C@H](O)[C@H]1O |  |  | 8 (≈ 18.5 µM) | 8 (≈ 18.5 µM) | 16 (≈ 37.1 µM) | 4 (≈ 9.27 µM) |  | 8 (≈ 18.5 µM) |  |
| C=CCOc1ccc(/C=C(\C)C(=O)N[C@@H]2[C@H](O)[C@@H](O)[C@H]3OCO[C@H]3[C@@H]2O)cc1O |  | 1.56 (≈ 3.83 µM) | 0.8 (≈ 1.96 µM) | 50 (≈ 123 µM) | 50 (≈ 123 µM) | 1.56 (≈ 3.83 µM) |  | 1.56 (≈ 3.83 µM) |  |
| CC(=O)[C@H]1O[C@@H](Oc2ccc(/C=C(\C)C(=O)N[C@@H]3[C@H](O)[C@@H](O)[C@H]4OCO[C@H]4[C@@H]3O)cc2O)[C@@H](O)[C@@H]1O [HYGROMYCIN A] |  | 12.5 (≈ 24.4 µM) | 6.25 (≈ 12.2 µM) | 25 (≈ 48.9 µM) | 50 (≈ 97.8 µM) | 6.25 (≈ 12.2 µM) |  | 12.5 (≈ 24.4 µM) |  |
